Assay results reported in patent US5223485A, “Anaphylatoxin-receptor ligands” (Abbott Laboratories, priority 1991, dated 1993).
Square brackets hold non-standard residues; d marks the D form. Peptide text beside a SMILES is read from it. * marks the point of attachment. X3 = CC(C)C[C@H](NC[C@H](C)N*)C(=O)N[C@H](C)C(=O)N[C@@H](CCCNC(=N)N)C(=O)O; NEtPhe = CCN[C@@H](Cc1ccccc1)C(=O)O; NMeF = CN[C@@H](Cc1ccccc1)C(=O)O; Cha = N[C@@H](CC1CCCCC1)C(=O)O; dNMeA = CN[C@H](C)C(=O)O; Boc = CC(C)(C)OC(=O)*; Ethyl(2-NH2) = NCC*; For = O=C*

Molecular target: T1, C5a Receptor (Homo sapiens, UniProt P21730)
T1 construct: 2.5-25 μg/mL of purified PMNL membrane fragments; from tissue; host or cells: polymorphonuclear leukocyte (PMNL) membrane fragments
T1 sequence (P21730 1-350): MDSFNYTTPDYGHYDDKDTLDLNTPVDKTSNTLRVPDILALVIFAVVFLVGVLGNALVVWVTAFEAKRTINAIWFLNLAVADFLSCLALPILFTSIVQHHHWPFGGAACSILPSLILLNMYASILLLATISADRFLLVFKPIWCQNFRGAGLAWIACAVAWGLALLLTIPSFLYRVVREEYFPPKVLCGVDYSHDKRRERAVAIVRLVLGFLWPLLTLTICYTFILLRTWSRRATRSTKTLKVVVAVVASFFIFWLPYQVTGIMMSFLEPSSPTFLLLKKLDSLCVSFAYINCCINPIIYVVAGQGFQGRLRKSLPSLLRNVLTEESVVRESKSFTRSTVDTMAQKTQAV
Experiment: Anaphylatoxin receptor binding Ki determination: inhibition of 125I-C5a binding to PMNL membrane fragments
Details: 0.03-1 nM 125I-C5a, 2.5-25 μg/mL purified PMNL membrane fragments, filtration; read-out: In vitro C5a Receptor Binding Potency Ki
Experimental: Specific inhibition of C5a binding activity of representative compounds of the present invention was measured using 0.03-1 nM ^125 I-C5a with 2.5-25 μg/mL of purified PMNL membrane fragments (Borregaard, N.; Heiple, J. M.; Simons, E. R.; and Clark, R. A. J. Cell. Biol. 1983, 97, 52-61.). Free and membrane-bound ligand were separated by filtration.

C[C@H](NC(=O)[C@H](CCCCN)NC(=O)[C@@H](N)Cc1ccccc1)C(=O)N[C@@H](CC1CCCCC1)C(=O)N[C@@H](CC1CCCCC1)C(=O)N[C@H](C)C(=O)N[C@H](C)C(=O)N[C@@H](CCCNC(=N)N)C(=O)O [Example 202, H-Phenylalanyl-Lysyl-Alanyl-{(2S)-2-Amino-3-cyclohexylpropanoyl}-{(2S)-2-Amino-3-cyclohexylpropanoyl}-DAlanyl-DAlanyl-Arginyl-OH] (H-FKA[Cha][Cha][dA][dA]R-OH)
Ki: 870 nM

CC(C)C[C@H](NC(=O)[C@H](C)NC(=O)[C@H](CC1CCCCC1)NC(=O)[C@H](C)NC(=O)[C@H](CCCCN)NC(=O)[C@@H](N)Cc1ccccc1)C(=O)N(C)[C@H](C)C(=O)N[C@@H](CCCNC(=N)N)C(=O)O [Example 296, H-Phenylalanyl-Lysyl-Alanyl-{(2S)-2-Amino-3-cyclohexylpropanoyl}-Alanyl-Leucyl-(N-Methyl)DAlanyl-Arginyl-OH] (H-FKA[Cha]AL[dNMeA]R-OH)
Ki: 12 nM

CCN[C@@H](Cc1ccccc1)C(=O)N[C@@H](CCCCN)C(=O)N[C@@H](C)C(=O)N[C@@H](CC1CCCCC1)C(=O)N[C@@H](C)C(=O)N[C@@H](CC(C)C)C(=O)N(C)[C@H](C)C(=O)N[C@@H](CCCNC(=N)N)C(=O)O [Example 402, (N-Ethyl)Phenylalanyl-Lysyl-Alanyl-{(2S)-2-Amino-3-cyclohexylpropanoyl}-Alanyl-Leucyl-(N-Methyl)DAlanyl-Arginyl-OH] (H-[NEtPhe]KA[Cha]AL[dNMeA]R-OH)
Ki: 11 nM

CC(C)C[C@H](NC(=O)[C@H](CC1CCCCC1)NC(=O)[C@@H](C)NC(=O)[C@H](C)NC(=O)[C@H](CCCCN)NC(=O)[C@@H](N)Cc1ccccc1)C(=O)N[C@H](C)C(=O)N[C@@H](CCCNC(=N)N)C(=O)O [Example 247, H-Phenylalanyl-Lysyl-Alanyl-DAlanyl-{(2S)-2-Amino-3-cyclohexylpropanoyl}-Leucyl-DAlanyl-Arginyl-OH] (H-FKA[dA][Cha]L[dA]R-OH)
Ki: 330 nM

CC(C)C[C@H](NC(=O)[C@H](CC1CCCCC1)NC(=O)[C@H](CC1CCCCC1)NC(=O)[C@H](C)NC(=O)[C@H](CSCCN)NC(=O)[C@@H](N)Cc1ccccc1)C(=O)N[C@H](C)C(=O)N[C@@H](CCCNC(=N)N)C(=O)O [Example 348, H-Phenylalanyl-(S-2-Aminoethyl)Cysteinyl-Alanyl-{(2S)-2-Amino-3-cyclohexylpropanoyl}-{(2S)-2-Amino-3-cyclohexylpropanoyl}-Leucyl-DAlanyl-Arginyl-OH] (H-FC(Ethyl(2-NH2))A[Cha][Cha]L[dA]R-OH)
Ki: 140 nM

CC(C)C[C@H](NC(=O)[C@H](CC1CCCCC1)NC(=O)[C@H](CC1CCCCC1)NC(=O)[C@H](C)NC(=O)[C@H](CCCCN)NC(=O)[C@@H](N)Cc1cn(C=O)c2ccccc12)C(=O)N[C@H](C)C(=O)N[C@@H](CCCNC(=N)N)C(=O)O [Example 338, H-Tryptophyl(N-formyl)-Lysyl-Alanyl-{(2S)-2-Amino-3-cyclohexylpropanoyl}-{(2S)-2-Amino-3-cyclohexylpropanoyl}-Leucyl-DAlanyl-Arginyl-OH] (H-W(For)KA[Cha][Cha]L[dA]R-OH)
Ki: 500 nM

CC(C)C[C@H](NC[C@H](C)NC(=O)[C@H](CC1CCCCC1)NC(=O)[C@H](C)NC(=O)[C@H](CCCCN)NC(=O)[C@@H](N)Cc1ccccc1)C(=O)N[C@H](C)C(=O)N[C@@H](CCCNC(=N)N)C(=O)O [Example 409, H-phenylalanyl-Lysyl-Alanyl-{(2S)-2-Amino-3-Cyclohexylpropanoyl}-Alanyl-.psi.{CH2 --NH}-Leucyl-DAlanyl-Arginyl-OH] (H-FKA[Cha]-X3)
Ki: 3800 nM

CCCC(C(=O)N[C@H](C)C(=O)N[C@@H](CCCNC(=N)N)C(=O)O)N1CCCC[C@H](NC(=O)[C@H](CC2CCCCC2)NC(=O)[C@H](Cc2c[nH]cn2)NC(=O)[C@H](CCCCN)NC(=O)[C@@H](N)Cc2ccccc2)C1=O (stereo partly drawn) [Example 150, H-Phenylalanyl-Lysyl-Histidyl-{(2S)-2-Amino-3-cyclohexylpropanoyl}-{(2'R/S,3S)-3-Amino-2-oxo-1-azepine-2'-pentanoyl}-DAlanyl-Arginyl-OH]
Ki: 110 nM

CC(C)C[C@H](NC(=O)[C@H](C)NC(=O)[C@H](CC1CCCCC1)NC(=O)[C@H](C)NC(=O)[C@H](CCCCN)NC(=O)[C@H](Cc1ccccc1)NC(=O)OC(C)(C)C)C(=O)N[C@H](C)C(=O)N[C@@H](CCCNC(=N)N)C(=O)O [Example 404, tert-Butyloxycarbonyl-Phenylalanyl-Lysyl-Alanyl-{(2S)-2-Amino-3-cyclohexylpropanoyl}-Alanyl-Leucyl-DAlanyl-Arginyl-OH] (Boc-FKA[Cha]AL[dA]R-OH)
Ki: 130 nM

CC(C)C[C@H](NC(=O)[C@H](CCCNC(=N)N)NC(=O)[C@H](CC1CCCCC1)NC(=O)[C@H](C)NC(=O)[C@H](CCCCN)NC(=O)[C@@H](N)Cc1ccccc1)C(=O)N[C@H](C)C(=O)N[C@@H](CCCNC(=N)N)C(=O)O [Example 432, H-Phenylalanyl-Lysyl-Alanyl-{(2S)-2-Amino-3-cyclohexylpropanoyl}-Arginyl-Leucyl-DAlanyl-Arginyl-OH] (H-FKA[Cha]RL[dA]R-OH)
Ki: 30 nM

CN[C@@H](Cc1ccccc1)C(=O)N[C@@H](CCCCN)C(=O)N[C@@H](CCCNC(=N)N)C(=O)N[C@@H](CCSC)C(=O)N[C@@H](CCC(N)=O)C(=O)N[C@@H](CC(C)C)C(=O)NCC(=O)N[C@@H](CCCNC(=N)N)C(=O)O [Example 460, (N-Methyl)Phenylalanyl-Lysyl-Arginyl-Methionyl-Glutaminyl-Leucyl-Glycyl-Arginyl-OH] (H-[NMeF]KRMQLGR-OH)
Ki: 21 nM

C[C@H](NC(=O)[C@H](CCCCN)NC(=O)[C@@H](N)Cc1ccccc1)C(=O)N[C@@H](CC1CCCCC1)C(=O)N[C@@H](CC1CCCCC1)C(=O)N[C@H](C(=O)N[C@H](C)C(=O)N[C@@H](CCCNC(=N)N)C(=O)O)[C@@H](C)O [Example 131, H-Phenylalanyl-Lysyl-Alanyl-{(2S)-2-Amino-3-cyclohexylpropanoyl}-{(2S)-2-Amino-3-cyclohexylpropanoyl}-Threonyl-DAlanyl-Arginyl-OH] (H-FKA[Cha][Cha]T[dA]R-OH)
Ki: 170 nM

CC(C)C[C@H](NC(=O)[C@@H](Cc1ccccc1)NC(=O)[C@H](CC1CCCCC1)NC(=O)[C@H](C)NC(=O)[C@H](CCCCN)NC(=O)[C@@H](N)Cc1ccccc1)C(=O)N[C@H](C)C(=O)N[C@@H](CCCNC(=N)N)C(=O)O [Example 220, H-Phenylalanyl-Lysyl-Alanyl-{(2S)-2-Amino-3-cyclohexylpropanoyl}-DPhenylalanyl-Leucyl-DAlanyl-Arginyl-OH] (H-FKA[Cha][dF]L[dA]R-OH)
Ki: 220 nM

Ac-Histidyl-Lysyl-Aspartyl-{(2S)-2-Amino-3-cyclohexylpropanoyl}-{(2S)-2-Amino-3-cyclohexylpropanoyl}-Leucyl-Pipecolyl(±)-Arginyl-OH [Example 13]
Ki: 850 nM

CC(C)C[C@H](NC(=O)[C@H](Cc1ccccc1)NC(=O)[C@H](Cc1ccccc1)NC(=O)[C@H](CC(N)=O)NC(=O)[C@H](CCCCN)NC(=O)[C@@H](N)Cc1ccccc1)C(=O)N[C@H](C)C(=O)N[C@@H](CCCNC(=N)N)C(=O)O [Example 91, H-Phenylalanyl-Lysyl-Asparaginyl-Phenylalanyl-Phenylalanyl-Leucyl-DAlanyl-Arginyl-OH] (H-FKNFFL[dA]R-OH)
Ki: 485 nM
